Experimental data reported in ChEMBL document CHEMBL5634179, “Phenylhydrazone Alkaloids from the Deep-Sea Cold Seep Derived Fungus Talaromyces amestolkiae HDN21-0307” (J Nat Prod, 2024).
≈ marks a conversion by molar mass, not a printed value. Where a name gives a salt, the structure may show the parent alone.

Key:
Bacillus cereus = test: Antibacterial activity against Bacillus cereus ATCC 4342 assessed as bacterial growth inhibition; assay type: functional
Staphylococcus = test: Antibacterial activity against methicillin-resistant coagulase-negative Staphylococcus assessed as bacterial growth inhibition; assay type: functional
Bacillus subtilis = test: Antibacterial activity against Bacillus subtilis ATCC 6051 assessed as bacterial growth inhibition; assay type: functional
Acinetobacter baumannii = test: Antibacterial activity against Acinetobacter baumannii AB34 assessed as bacterial growth inhibition; assay type: functional
[1] = Cytotoxicity against human H446/EP cells by SRB assay; assay type: functional, cell-based
K562 = test: Cytotoxicity against human K562 cells by MTT assay; assay type: functional, cell-based
MDA-MB-231 = test: Cytotoxicity against human MDA-MB-231 cells by SRB assay; assay type: functional, cell-based
NCI-H446 = test: Cytotoxicity against human NCI-H446 cells by SRB assay; assay type: functional, cell-based
ASPC1 = test: Cytotoxicity against human ASPC1 cells by SRB assay; assay type: functional, cell-based
Staphylococcus aureus [2] = test: Antibacterial activity against methicillin-resistant Staphylococcus aureus assessed as bacterial growth inhibition; assay type: functional
Staphylococcus aureus [3] = test: Antibacterial activity against Staphylococcus aureus ATCC 29213 assessed as bacterial growth inhibition; assay type: functional
Pseudomonas aeruginosa = test: Antibacterial activity against Pseudomonas aeruginosa ATCC 27853 assessed as bacterial growth inhibition; assay type: functional

Compound: O=C(O)c1cn(C2CC2)c2cc(N3CCNCC3)c(F)cc2c1=O [CIPROFLOXACIN]
- MIC (Bacillus cereus): 0.063 µg/mL (≈ 0.19 µM)
- MIC (Staphylococcus): 4 µg/mL (≈ 12.1 µM)
- MIC (Bacillus subtilis): 0.63 µg/mL (≈ 1.9 µM)
- MIC (Acinetobacter baumannii): 16 µg/mL (≈ 48.3 µM)

Compound: COc1cc(O)ccc1N/N=C1/C(=O)[C@@](C)(OC(=O)c2c(C)cc(O)cc2O)C(=O)C2=C1C=C(/C=C/C(=O)O)OC2
- IC50 [1]: > 15 µM
- IC50 (K562): > 15 µM
- IC50 (MDA-MB-231): > 15 µM
- IC50 (NCI-H446): 10.2 µM
- IC50 (ASPC1): > 15 µM
- MIC (Bacillus cereus): > 150 µg/mL
- MIC (Staphylococcus): > 150 µg/mL
- MIC (Staphylococcus aureus [2]): > 150 µg/mL
- MIC (Staphylococcus aureus [3]): 64 µg/mL (≈ 113 µM)
- MIC (Pseudomonas aeruginosa): > 150 µg/mL
- MIC (Bacillus subtilis): > 150 µg/mL
- MIC (Acinetobacter baumannii): > 150 µg/mL

Compound: COc1cc(O)ccc1N/N=C1\C(=O)C=C(Cc2ccccc2)NC1=O
- IC50 [1]: > 15 µM
- IC50 (K562): > 15 µM
- IC50 (MDA-MB-231): > 15 µM
- IC50 (NCI-H446): 4.1 µM
- IC50 (ASPC1): > 15 µM
- MIC (Bacillus cereus): > 150 µg/mL
- MIC (Staphylococcus): > 150 µg/mL
- MIC (Staphylococcus aureus [2]): > 150 µg/mL
- MIC (Staphylococcus aureus [3]): 32 µg/mL (≈ 91.1 µM)
- MIC (Pseudomonas aeruginosa): > 150 µg/mL
- MIC (Bacillus subtilis): > 150 µg/mL
- MIC (Acinetobacter baumannii): > 150 µg/mL

Compound: COc1cc(O)ccc1N/N=C1/C=Cc2cc(O)cc(O)c2C1=O
- IC50 [1]: > 15 µM
- IC50 (K562): > 15 µM
- IC50 (MDA-MB-231): > 15 µM
- IC50 (NCI-H446): > 15 µM
- IC50 (ASPC1): > 15 µM
- MIC (Bacillus cereus): 128 µg/mL (≈ 392 µM)
- MIC (Staphylococcus): 64 µg/mL (≈ 196 µM)
- MIC (Staphylococcus aureus [2]): 64 µg/mL (≈ 196 µM)
- MIC (Staphylococcus aureus [3]): 128 µg/mL (≈ 392 µM)
- MIC (Pseudomonas aeruginosa): > 150 µg/mL
- MIC (Bacillus subtilis): 128 µg/mL (≈ 392 µM)
- MIC (Acinetobacter baumannii): > 150 µg/mL

Compound: COc1cc(O)ccc1N/N=C1/C=Cc2cccc(O)c2C1=O
- IC50 [1]: > 15 µM
- IC50 (K562): > 15 µM
- IC50 (MDA-MB-231): > 15 µM
- IC50 (NCI-H446): > 15 µM
- IC50 (ASPC1): > 15 µM
- MIC (Bacillus cereus): 128 µg/mL (≈ 412 µM)
- MIC (Staphylococcus): 128 µg/mL (≈ 412 µM)
- MIC (Staphylococcus aureus [2]): 128 µg/mL (≈ 412 µM)
- MIC (Staphylococcus aureus [3]): 128 µg/mL (≈ 412 µM)
- MIC (Pseudomonas aeruginosa): > 150 µg/mL
- MIC (Bacillus subtilis): 128 µg/mL (≈ 412 µM)
- MIC (Acinetobacter baumannii): > 150 µg/mL

Compound: COc1cccc2c1C(=O)c1c(O)c3c(c(O)c1C2=O)C[C@@](O)(C(=O)CO)C[C@@H]3O[C@H]1C[C@H](N)[C@H](O)[C@H](C)O1 [DOXORUBICIN HYDROCHLORIDE]
- IC50 [1]: 6 µM
- IC50 (NCI-H446): 0.6 µM
- IC50 (ASPC1): 0.21 µM
